From US20240150365A1 (Hotspot Therapeutics, Inc., priority 2022, published 2024)
Where two headings read alike, the source gives them in different places.

Legend:
MALT1 = target: T1, MALT1 (Homo sapiens, UniProt Q9UDY8); experiment: MALT-1 Fluorogenic Peptide Cleavage Assay (MALT1 inhibition assay); type: biochemical; conditions: Avi-tagged FL MALT-1, Ac-LRSR-AMC peptide substrate, 30 min pre-incubation, 90 min reaction
T1 construct: Avi-tagged FL MALT-1 (Pharmaron, stored at −70° C.); Avi tag
T1 sequence (Q9UDY8 1-824): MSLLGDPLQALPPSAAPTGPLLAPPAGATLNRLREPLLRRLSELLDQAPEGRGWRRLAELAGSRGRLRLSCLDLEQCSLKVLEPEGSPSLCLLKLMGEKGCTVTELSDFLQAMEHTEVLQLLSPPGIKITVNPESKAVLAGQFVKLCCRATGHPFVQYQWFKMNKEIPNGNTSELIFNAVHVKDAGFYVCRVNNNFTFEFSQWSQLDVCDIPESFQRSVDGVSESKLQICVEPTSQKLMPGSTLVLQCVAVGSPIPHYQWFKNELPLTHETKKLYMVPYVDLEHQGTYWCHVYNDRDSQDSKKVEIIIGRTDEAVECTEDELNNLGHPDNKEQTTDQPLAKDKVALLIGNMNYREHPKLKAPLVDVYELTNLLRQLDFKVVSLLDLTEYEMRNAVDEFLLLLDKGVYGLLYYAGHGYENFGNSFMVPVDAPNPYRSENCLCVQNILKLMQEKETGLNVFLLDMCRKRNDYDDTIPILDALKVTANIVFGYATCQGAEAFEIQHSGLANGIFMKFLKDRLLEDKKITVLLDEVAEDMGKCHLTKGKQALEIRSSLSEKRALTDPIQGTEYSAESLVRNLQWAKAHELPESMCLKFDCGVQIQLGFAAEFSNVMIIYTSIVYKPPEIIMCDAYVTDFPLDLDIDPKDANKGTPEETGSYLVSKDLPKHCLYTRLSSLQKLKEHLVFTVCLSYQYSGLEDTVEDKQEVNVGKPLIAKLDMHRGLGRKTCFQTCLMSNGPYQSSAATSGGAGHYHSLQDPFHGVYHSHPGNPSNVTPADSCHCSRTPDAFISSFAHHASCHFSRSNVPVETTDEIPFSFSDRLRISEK
Method in brief: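 IC50 from sigmoidal fits of % inhibition, with fluorescence (ex 342, em 441 nm) from AMC released from the quenched LRSR peptide after 90 min at room temperature. Full-length Avi-tagged MALT1 saw compound for 30 min first; final DMSO 2%.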

NF-kB = NF-kB reporter assay in Jurkat cells stimulated with aCD3/aCD28/PMA; type: cell-based; conditions: Homo sapiens, Jurkat, read-out: NF-kB Reporter Assay IC50
Method in brief: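 Stimulation used final aCD3 5 μg/mL, aCD28 5 μg/mL and PMA 0.03 μg/mL for 4 hr at 37° C, after 1 hr compound pretreatment of 25,000 serum-starved Jurkat cells per well. One-Glo luminescence gave IC50 values.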

[1] = Jurkat cells, 1 hr compound incubation, aCD3/aCD28/PMA stimulation 4 hr, One-Glo readout

Structure (SMILES) | IC50 (MALT1) [nM] | IC50 (NF-kB; [1]) [nM] | IC50 (NF-kB) [nM]
COc1ncc2cnn(C)c2c1NS(=O)(=O)c1ccc(-n2cc(C3CC3)cn2)nc1 [Example I-187, 6-(4-cyclopropylpyrazol-1-yl)-N-{6-methoxy-1-methylpyrazolo[4,3-c]pyridin-7-yl}pyridine-3-sulfonamide] | < 400 | < 400 | 
CCc1ccc2cnn(C)c2c1NS(=O)(=O)c1ccc(-n2cc(C(F)(F)F)cn2)nc1 [Example I-2] | < 400 | < 400 | 
[2H]C([2H])([2H])n1ncc2ccc(OC)c(NS(=O)(=O)c3ccc(-n4cc(Cl)cn4)nc3)c21 [Example I-212, 6-(4-Chloro-1H-Pyrazol-1-yl)-N-(6-Methoxy-1-(Methyl-D3)-1H-Indazol-7-yl)Pyridine-3-Sulfonamide] | < 400 | < 400 | 
Cc1cnn(-c2ccc(S(=O)(=O)Nc3cccc4cnn(C)c34)cn2)n1 [Example I-52, N-(1-Methyl-1H-Indazol-7-yl)-6-(4-Methyl-2H-1,2,3-Triazol-2-yl)Pyridine-3-Sulfonamide] | > 2500 | 1000 to 2500 | 
Cc1ncccc1-c1ccc(S(=O)(=O)Nc2cccc3cnn(C)c23)cn1 [Example I-113, 2′-Methyl-N-(1-Methylindazol-7-yl)-[2,3′-Bipyridine]-5-Sulfonamide] | > 2500 | 400 to 1000 | 
Cc1cn(-c2ccc(S(=O)(=O)Nc3cccc4cnn(C)c34)cn2)nc1C(F)(F)F [Example I-44, 6-[4-Methyl-3-(Trifluoromethyl)Pyrazol-1-Yl]-N-(1-Methylindazol-7-yl)Pyridine-3-Sulfonamide] | 400 to 1000 | < 400 | 
COc1ccc2cnn(C)c2c1NS(=O)(=O)c1ccc(N2CC(C)(C)OC2=O)nc1 [Example I-223, 6-(5,5-Dimethyl-2-Oxooxazolidin-3-yl)-N-(6-Methoxy-1-Methyl-1H-Indazol-7-yl)Pyridine-3-Sulfonamide] | > 2500 | < 400 | 
Cn1ncc2cccc(NS(=O)(=O)c3ccc(-c4ccc[nH]4)nc3)c21 [Example I-80, N-(1-Methyl-1H-Indazol-7-yl)-6-(1H-Pyrrol-2-yl)Pyridine-3-Sulfonamide] | > 2500 | 1000 to 2500 | 
Cn1ncc2cccc(NS(=O)(=O)c3ccc(-c4cncs4)nc3)c21 [Example I-101, N-(1-Methyl-1H-Indazol-7-yl)-6-(Thiazol-5-yl)Pyridine-3-Sulfonamide] | < 400 | < 400 | 
Cn1ncc2cccc(NS(=O)(=O)c3ccc(-n4cc([N+](=O)[O-])cn4)nc3)c21 [Example I-41, N-(1-Methylindazol-7-yl)-6-(4-Nitropyrazol-1-yl)Pyridine-3-Sulfonamide] | < 400 | 400 to 1000 | 
Cc1n[nH]c2cccc(NS(=O)(=O)c3ccc(-c4cnn5c4CCC5)nc3)c12 [Example I-288] | > 2500 | < 400 | 
COCCn1ncc2cccc(NS(=O)(=O)c3ccc(-n4ccc(C5CC5)n4)nc3)c21 [Example I-231, 6-(3-Cyclopropyl-1H-Pyrazol-1-yl)-N-(1-(2-Methoxyethyl)-1H-Indazol-7-yl)Pyridine-3-Sulfonamide] | > 2500 | > 2500 | 
CC(O)c1cnn(-c2ccc(S(=O)(=O)Nc3cccc4cnn(C)c34)cn2)c1 (stereo not drawn) [Example I-282] | > 2500 | 400 to 1000 | 
COc1ncc(-c2ccc(S(=O)(=O)Nc3cccc4cnn(C)c34)cn2)s1 [Example I-243, 6-(2-methoxythiazol-5-yl)-N-(1-methyl-1H-indazol-7-yl)pyridine-3-sulfonamide] | > 2500 |  | < 400
COc1ncc2cnn(C)c2c1N(C)S(=O)(=O)c1ccc(-n2ccc(C(F)(F)F)n2)nc1 [Example I-195, N-(6-Methoxy-1-Methyl-1H-Pyrazolo[4,3-C]Pyridin-7-yl)-N-Methyl-6-(3-(Trifluoromethyl)-1H-Pyrazol-1-yl)Pyridine-3-Sulfonamide] | < 400 | < 400 | 
COC(C)(C)c1ncc(-c2ccc(S(=O)(=O)Nc3cccc4cnn(C)c34)cn2)s1 [Example I-268, 6-(2-(2-methoxypropan-2-yl)thiazol-5-yl)-N-(1-methyl-1H-indazol-7-yl)pyridine-3-sulfonamide] | > 2500 |  | < 400
COc1cc(-c2ccc(S(=O)(=O)Nc3cccc4cnn(C)c34)cn2)ccn1 [Example I-108, 2′-Methoxy-N-(1-Methyl-1H-Indazol-7-yl)-[2,4′-Bipyridine]-5-Sulfonamide] | > 2500 | < 400 | 
Cn1[nH]c2c(NS(=O)(=O)c3ccc(-n4cc(C(F)(F)F)cn4)nc3)cccc2c1=O [Example I-181, N-(2-methyl-3-oxo-2,3-dihydro-1H-indazol-7-yl)-6-(4-(trifluoromethyl)-1H-pyrazol-1-yl)pyridine-3-sulfonamide] | > 2500 | 400 to 1000 | 
COc1ccc2cnn(C)c2c1NS(=O)(=O)c1ccc(-n2nccc2OC)nc1 [Example I-151, N-(6-Methoxy-1-Methyl-1H-Indazol-7-yl)-6-(5-Methoxy-1H-Pyrazol-1-yl)Pyridine-3-Sulfonamide] | < 400 | < 400 | 
Cn1ncc2cccc(NS(=O)(=O)c3ccc(-c4ccn(C(F)F)n4)nc3)c21 [Example I-138, 6-(1-(Difluoromethyl)-1H-Pyrazol-3-yl)-N-(1-Methyl-1H-Indazol-7-yl)Pyridine-3-Sulfonamide] | > 2500 | < 400 | 
Cn1ncc2cccc(NS(=O)(=O)c3ccc(-c4cnc(C(F)F)s4)nc3)c21 [Example I-241, 6-(2-(difluoromethyl)thiazol-5-yl)-N-(1-methyl-1H-indazol-7-yl)pyridine-3-sulfonamide] | 400 to 1000 |  | < 400
CCc1ccc2cnn(C)c2c1NS(=O)(=O)c1ccc(-n2nccc2C(F)(F)F)nc1 [Example I-126, N-(6-ethyl-1-methyl-1H-indazol-7-yl)-6-(5-(trifluoromethyl)-1H-pyrazol-1-yl)pyridine-3-sulfonamide] | < 400 | < 400 | 
O=S(=O)(c1ccc(-n2cc(C(F)(F)F)cn2)nc1)N1CCCn2ncc3cccc1c32 [Example I-292, 1-((6-(4-(trifluoromethyl)-1H-pyrazol-1-yl)pyridin-3-yl)sulfonyl)-1,2,3,4-tetrahydro-[1,4]diazepino[3,2,1-hi]indazole] | > 2500 | 400 to 1000 | 
COc1ccc2cnn(C)c2c1NS(=O)(=O)c1ccc(-n2cc(C(C)O)cn2)nc1 (stereo not drawn) [Example I-280, 6-(4-(1-Hydroxyethyl)-1H-Pyrazol-1-yl)-N-(6-Methoxy-1-Methyl-1H-Indazol-7-yl)Pyridine-3-Sulfonamide] | 400 to 1000 | < 400 | 
CN1CCN(c2ccc(S(=O)(=O)Nc3cccc4cnn(C)c34)cn2)C1=O [Example I-226, N-(1-Methyl-1H-Indazol-7-yl)-6-(3-Methyl-2-Oxoimidazolidin-1-yl)Pyridine-3-Sulfonamide] | > 2500 | < 400 | 
Cn1ncc2cccc(NS(=O)(=O)c3ccc(-c4cnc5n4CCOC5)nc3)c21 [Example I-309, 6-(5,6-dihydro-8H-imidazo[2,1-c][1,4]oxazin-3-yl)-N-(1-methyl-1H-indazol-7-yl)pyridine-3-sulfonamide] | > 2500 | < 400 | 
COc1ncc2cnn(C)c2c1NS(=O)(=O)c1ccc(-c2cnn3c2COCCC3)nc1 [Example I-311] | > 2500 | > 2500 | 
